Source: PMC11597167, “Evaluation of Selected Plant Phenolics via Beta-Secretase-1 Inhibition, Molecular Docking, and Gene Expression Related to Alzheimer’s Disease” (Pharmaceuticals, 2024)
Like-named read-outs stand apart in the source and are kept apart here.

Columns and labels:
[1] = system: SH-SY5Y human neuroblastoma cells; assay type: cell-based; details: 24 h
Method: SH-SY5Y, a human neuroblastoma cell line (purchased from ATCC®, Cat. No. CRL-2266™), was maintained in Dulbecco’s Modified Eagle Medium/Nutrient Mixture F-12 (DMEM/F-12) complemented with 10% heat-inactivated fetal bovine serum (FBS) and 1% penicillin–streptomycin after being processed for 30 min at 56 °C. Cells were cultivated in a sterile incubator at 37 °C with 5% CO2 and 95% relative humidity.
Cells were maintained in Dulbecco’s Modified Eagle’s Medium (DMEM)/nutrient mixture F-12 (DMEM/F-12) containing 1% penicillin–streptomycin supplemented with 10% fetal bovine serum (FBS) heat-inactivated at 56 °C for 30 min. Cells were cultured in a sterile incubator at 37 °C with 5% CO2 and 95% humidity. Then, 10,000 SH-SY5Y cells in 100 µL of complete medium were seeded in each well of a 96-well plate and incubated for 16–24 h for surface attachment. […] Then, 10 µL of filter-sterilized 0.015% resazurin solution (Sigma-Aldrich, R7017) was added to each well and incubated for 2 h at 37 °C with 5% CO2. Excitation at 560 nm wavelength and emission fluorescence at 590 nm wavelength were measured, and cell viability% was calculated compared to the control group.

BACT = assay: RT-PCR gene expression in SH-SY5Y cells (reference gene); assay type: cell-based, human; details: 24 h at IC08, β-actin, the normalizing reference gene
Method: (§1) In the RNA isolation protocol, cell pellets were homogenized using 1 mL of TRIzol reagent and incubated for 5 min at room temperature. Chloroform (200 μL) was added, and the mixture was shaken vigorously and incubated for 3 min at room temperature. The mixture was then centrifuged at 10,000 rpm for 15 min at +4 °C, and the upper colorless phase was transferred to an RNase-free microcentrifuge tube. Isopropanol (500 μL) was added to the tube, and the mixture was incubated at room temperature for 10 min and centrifuged at 10,000 rpm for 10 min. The supernatant was removed, and the pellet was washed with at least 75% ethanol (1 mL) and centrifuged at 7500 rpm for 5 min at +4 °C. After removing all of the supernatant from the tube and air-drying the pellet, the RNA-containing pellet was dissolved in approximately 100 μL of nuclease-free water and incubated at 55 °C for 5 min. RNA was stored at -80 °C for long-term storage. cDNA synthesis was performed using the ABM, OneScript® Plus cDNA synthesis kit (Applied Biological Materials Inc. (abm), Richmond, BC, Canada). A mixture of RNA (2000 ng/μL), dNTPs (1 μL), oligo (dT) primer (1 μL), […], and up to 13 μL of nuclease-free water was prepared and incubated at 65 °C for 5 min as described in the protocol supplied with the kit. After incubating the mixture on ice for 1 min, 4 μL of 5X RT buffer and 1 μL of OneScript® Plus RTase were added to the tube. The mixture was incubated at 50 °C for 50 min and 85 °C for 5 min. cDNA was stored at -20 °C for long-term storage. Real-time PCR was performed using ABM, BlasTaqTM 2X qPCR MasterMix, and the CFX Connect real-time system. […] DMSO, the solvent for dissolving the phenolic compounds, was used as the control group. The Qiagen GeneGlobe Complimentary qPCR Data Analysis Portal (Redwood City, CA, USA), utilizing default parameters, was employed to calculate changes in gene expression. CT values were exported from the BioRad CFX Connect real-time qPCR system and normalized against a reference gene. The p-value was derived from a Student's t-test applied to the replicate 2^-ΔΔCT values for each gene in the comparisons between the control and test groups. The p-value calculation employed was derived from a parametric, unpaired, two-sample equal variance, two-tailed distribution, a method that is widely recognized in the scientific literature. Fold change calculations, representing gene expression ratios, were determined using the established ΔΔCT method as initially described by Livak and Schmittgen. […] Multiple groups were compared by ANOVA and Dunnet post hoc test.

CCL5 = assay: RT-PCR gene expression in SH-SY5Y cells; assay type: cell-based, human; details: 24 h at IC08, vs DMSO control, normalized to β-actin
Method: as §1

CD33 = assay: RT-PCR gene expression in SH-SY5Y cells; assay type: cell-based, human; details: 24 h at IC08, vs DMSO control, normalized to β-actin
Method: as §1

CD2AP = assay: RT-PCR gene expression in SH-SY5Y cells; assay type: cell-based, human; details: 24 h at IC08, vs DMSO control, normalized to β-actin
Method: as §1

TNF = assay: RT-PCR gene expression in SH-SY5Y cells; assay type: cell-based, human; details: 24 h at IC08, vs DMSO control, normalized to β-actin
Method: as §1

APOE = assay: RT-PCR gene expression in SH-SY5Y cells; assay type: cell-based, human; details: 24 h at IC08, vs DMSO control, normalized to β-actin
Method: as §1

ABCA7 = assay: RT-PCR gene expression in SH-SY5Y cells; assay type: cell-based, human; details: 24 h at IC08, vs DMSO control, normalized to β-actin
Method: as §1

PICALM = assay: RT-PCR gene expression in SH-SY5Y cells; assay type: cell-based, human; details: 24 h at IC08, vs DMSO control, normalized to β-actin
Method: as §1

APP = assay: RT-PCR gene expression in SH-SY5Y cells; assay type: cell-based, human; details: 24 h at IC08, vs DMSO control, normalized to β-actin
Method: as §1

PSEN1 = assay: RT-PCR gene expression in SH-SY5Y cells; assay type: cell-based, human; details: 24 h at IC08, vs DMSO control, normalized to β-actin
Method: as §1

MMP9 = assay: RT-PCR gene expression in SH-SY5Y cells; assay type: cell-based, human; details: 24 h at IC08, vs DMSO control, normalized to β-actin
Method: as §1

BIN1 = assay: RT-PCR gene expression in SH-SY5Y cells; assay type: cell-based, human; details: 24 h at IC08, vs DMSO control, normalized to β-actin
Method: as §1

CR1 = assay: RT-PCR gene expression in SH-SY5Y cells; assay type: cell-based, human; details: 24 h at IC08, vs DMSO control, normalized to β-actin
Method: as §1

CLU = assay: RT-PCR gene expression in SH-SY5Y cells; assay type: cell-based, human; details: 24 h at IC08, vs DMSO control, normalized to β-actin
Method: as §1

SORL1 = assay: RT-PCR gene expression in SH-SY5Y cells; assay type: cell-based, human; details: 24 h at IC08, vs DMSO control, normalized to β-actin
Method: as §1

human recombinant BACE1 = human recombinant BACE1 (Homo sapiens, UniProt P56817); assay: biochemical; assay type: biochemical; details: n: 3; for BACE1 Inhibition (Inhibition% ± SD): 10 mM stock concentration; for IC50: BACE1
human recombinant BACE1, sequence (P56817 46-501): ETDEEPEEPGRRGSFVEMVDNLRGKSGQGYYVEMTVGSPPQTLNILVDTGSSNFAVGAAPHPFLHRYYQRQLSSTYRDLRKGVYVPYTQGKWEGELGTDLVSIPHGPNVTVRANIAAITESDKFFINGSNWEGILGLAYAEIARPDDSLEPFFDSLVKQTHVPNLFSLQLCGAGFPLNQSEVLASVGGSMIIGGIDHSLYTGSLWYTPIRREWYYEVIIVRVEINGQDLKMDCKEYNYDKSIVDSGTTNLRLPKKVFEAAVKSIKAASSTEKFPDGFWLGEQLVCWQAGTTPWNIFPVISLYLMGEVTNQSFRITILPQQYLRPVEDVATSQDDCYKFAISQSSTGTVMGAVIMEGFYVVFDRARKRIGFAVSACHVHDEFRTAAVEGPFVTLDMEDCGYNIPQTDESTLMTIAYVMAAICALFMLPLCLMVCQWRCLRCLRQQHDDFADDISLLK
Method: Fluorescence resonance energy transfer (FRET) technology was used to measure the enzymatic activity of BACE1, and measurements were performed by modifying previously used methods and the protocol included in the manufacturer’s (PanVera® Corporation, Madison, […], USA) assay kit. […] The inhibition rate was obtained using the following equation:Inhibition% = [1 − (B − B0)/(K − K0)] × 100
• K0 = fluorescence value of the control group at minute 0 • K = fluorescence value of the control group at 60 min • B0 = fluorescence value of the test compound at minute 0 • B = fluorescence value of the test compound at 60 min

APP/PS1 transgenic mice = system: APP/PS1 transgenic mice; parameters: method as in PMID 32913125; details: 6 months at 20 mg/kg b.w.; cited from earlier work
BACE1 = details: earlier study, cited from earlier work
[2] = concentration with 8% inhibition (92% viability), SH-SY5Y, Mean ± SD
[3] = read-out: IC50 (inhibitory effect against BACE1)

Row | SMILES | IC08 Values [1, 2] | Fold Regulation BACT (BACT) | Fold Regulation CCL5 (CCL5) | Fold Regulation CD33 (CD33) | Fold Regulation CD2AP (CD2AP) | Fold Regulation TNF (TNF) | Fold Regulation APOE (APOE) | Fold Regulation ABCA7 (ABCA7) | Fold Regulation PICALM (PICALM) | Fold Regulation APP (APP) | Fold Regulation PSEN1 (PSEN1) | Fold Regulation MMP9 (MMP9) | Fold Regulation BIN1 (BIN1) | Fold Regulation CR1 (CR1) | Fold Regulation CLU (CLU) | Fold Regulation SORL1 (SORL1) | BACE1 Inhibition (Inhibition% ± SD) (human recombinant BACE1) | IC50 (human recombinant BACE1) | IC08 Values ([1]; human) | IC50 (BACE1; [3]) | further results
1 | O=C(O[C@@H]1Cc2c(O)cc(O)cc2O[C@@H]1c1cc(O)c(O)c(O)c1)c1cc(O)c(O)c(O)c1 [EGCG, epigallocatechin gallate] | 103 ± 12.47 µM | – | – | – | – | – | – | – | – | – | – | – | – | – | – | – | – | – | – | – | –
2 | O=C(O)c1cc(O)c(O)c(O)c1 [Gallic acid, 3,4,5-trihydroxybenzoic acid] | 187 ± 7.11 µM | 1.00 | 1.92 | 2.40 | 1.15 | 2.06 | −1.07 | 1.55 | 1.22 | 1.15 | −1.11 | 3.14 | 1.16 | 2.20 | −1.11 | 1.65 | 27.51 ± 2.97% | – | – | – | BACE1 Inhibition (Inhibition% ± SD) (human recombinant BACE1; listed as gallic acid): below 50%; spatial reference learning and memory impairment (APP/PS1 transgenic mice): totally reversed
3 | C/C=C1/[C@H](O[C@@H]2O[C@H](CO)[C@@H](O)[C@H](O)[C@H]2O)OC=C(C(=O)OC)[C@H]1CC(=O)OCCc1ccc(O)c(O)c1 [Oleuropein, oleuropein] | – | 1.00 | 2.67 | 3.88 | 1.31 | 2.09 | −1.33 | 2.42 | 1.43 | 1.05 | −1.07 | 5.31 | −1.14 | 3.45 | −1.78 | 1.90 | 52.38 ± 2.08% | 9870 ± 1010 µM | 171 ± 22.01 µM | 2.76 ± 0.23 µM | –
4 | O=c1c(O)c(-c2ccc(O)c(O)c2)oc2cc(O)cc(O)c12 [Quercetin, 3,3′,4′,5,7-pentahydroxyflavone, reference compound] | 27 ± 5.30 µM | – | – | – | – | – | – | – | – | – | – | – | – | – | – | – | 86.87 ± 4.48% | – | – | – | –
5 | OCCc1ccc(O)c(O)c1 [3-Hydroxytyrosol, 3-hydroxytyrosol] | 278 ± 12.21 µM | 1.00 | 3.61 | 2.88 | 1.36 | 2.04 | −1.17 | 1.82 | 1.21 | −1.07 | −1.08 | 4.38 | 1.87 | 2.86 | 1.15 | 1.81 | 45.33 ± 0.22% | > 10000 µM | – | 0.035 ± 0.04 µM | BACE1 Inhibition (Inhibition% ± SD) (human recombinant BACE1; listed as 3-hydroxytyrosol): below 50%
6 | O=C(/C=C/c1ccc(O)c(O)c1)O[C@H](Cc1ccc(O)c(O)c1)C(=O)O [Rosmarinic acid, rosmarinic acid] | – | 1.00 | 1.82 | 1.88 | 1.08 | 1.75 | 1.45 | −1.07 | 1.32 | 1.01 | 1.55 | 3.02 | 1.33 | 1.34 | 1.11 | 1.23 | 67.04 ± 0.64% | 4060 ± 680 µM | 546 ± 31.55 µM | – | IC50 (BACE1; read-out: IC50 (BACE1 inhibitory potential)): 21 µM
